This note sets out measurements from US10640534B2 (Agios Pharmaceuticals, Inc., priority 2012, dated 2020).

For the test, the system named is U87MG cells. Kind of test: Cellular assay, inhibition of 2-HG production in U87MG cells. The class given is cell-based. Particulars: Homo sapiens, U-87 MG, 48 h. The procedure:
Cells (HT1080 or U87MG) are grown in T125 flasks in DMEM containing 10% FBS, 1× penicillin/streptomycin and 500 ug/mL G418 (present in U87MG cells only). They are harvested by trypsin and seeded into 96 well white bottom plates at a density of 5000 cell/well in 100 ul/well in DMEM with 10% FBS. […] Cells are incubated overnight at 37° C. in 5% CO2. The next day test compounds are made up at 2× the final concentration and 100 ul are added to each cell well. The final concentration of DMSO is 0.2% and the DMSO control wells are plated in row G. The plates are then placed in the incubator for 48 hours. […] The cell plate is placed back in the incubator for another 24 hours. At 72 hours post compound addition, 10 mL/plate of Promega Cell Titer Glo reagent is thawed and mixed. The cell plate is removed from the incubator and allowed to equilibrate to room temperature. Then 100 ul of Promega Cell Titer Glo reagent is added to each well of media. The cell plate is then placed on an orbital shaker for 10 minutes and then allowed to sit at room temperature for 20 minutes. The plate is then read for luminescence with an integration time of 500 ms.

`N#Cc1cccc(N(C(=O)[C@@H]2C[C@@H](O)C(=O)N2c2cc(C#N)ccn2)C(C(=O)NC2CC(F)(F)C2)c2ccccc2Cl)c1` (stereo partly drawn) [Compound 170, (2S,4R)—N-(1-(2-chlorophenyl)-2-((3,3-difluorocyclobutyl)amino)-2-oxoethyl)-N-(3-cyano-phenyl)-1-(4-cyanopyridin-2-yl)-4-hydroxy-5-oxopyrrolidine-2-carboxamide] came in with an IC50 below 100 nM.
The same measure for `O=C(NC1CC(F)(F)C1)C(c1ccccc1Cl)N(C(=O)[C@@H]1CCCC(=O)N1c1ncccn1)c1cccc(F)c1` (stereo in doubt) [Compound 20, (S)—N—((R)-1-(2-Chloro-phenyl)-2-((3,3-difluorocyclobutyl)amino)-2-oxoethyl)-N-(3-fluoro-phenyl)-6-oxo-1-(pyrimidin-2-yl)piperidine-2-carboxamide]: 100 to 500 nM.
For the molecule `N#Cc1ccnc(N2C(=O)CC[C@H]2C(=O)N(c2cncc(F)c2)C(C(=O)NC2CC(F)(F)C2)c2ccccc2Cl)c1` (stereo partly shown) [Compound 91], the IC50 was below 100 nM.
The same measure for `N#Cc1ccnc(N2C(=O)CC[C@H]2C(=O)N(c2cccc(F)c2)[C@H](C(=O)NC2CCC(F)(F)CC2)c2ccccc2Cl)n1` [Compound 85, (S)—N—((S)-1-(2-Chlorophenyl)-2-((4,4-difluorocyclohexyl)amino)-2-oxoethyl)-1-(4-cyanopyrimidin-2-yl)-N-(3-fluorophenyl)-5-oxopyrrolidine-2-carboxamide]: below 100 nM; for `CCOC(=O)CN1CC(=O)N(c2cc(C#N)ccn2)[C@H](C(=O)N(c2cc(F)cc(F)c2)[C@H](C(=O)NC2CC(F)(F)C2)c2ccccc2Cl)C1` [Compound 104]: below 100 nM; for `CCOC(=O)CN1C[C@@H](C(=O)N(c2cccc(F)c2)C(C(=O)NC2CC(F)(F)C2)c2ccccc2Cl)N(c2nccc(C#N)n2)C1=O` (stereo partly drawn) [Compound 111, Ethyl 2-((4S)-4-((1-(2-chlorophenyl)-2-((3,3-difluorocyclobutyl)amino)-2-oxoethyl)(3-fluorophenyl)carbamoyl)-3-(4-cyanopyrimidin-2-yl)-2-oxoimidazolidin-1-yl)acetate]: below 100 nM.
The figure for `O=C(NC1CCCCC1)[C@H](c1ccccc1Cl)N(C(=O)[C@@H]1CCC(=O)N1c1ncccn1)c1cccc(F)c1` [Compound 7] is below 100 nM.
`CN(C)S(=O)(=O)c1cccc(N(C(=O)[C@@H]2CCC(=O)N2c2cc(C#N)ccn2)[C@H](C(=O)NC2CC(F)(F)C2)c2ccccc2Cl)c1` [Compound 156, (S)—N—((S)-1-(2-Chlorophenyl)-2-(3,3-difluorocyclobutylamino)-2-oxoethyl)-1-(4-cyanopyridin-2-yl)-N-(3-(N,N-dimethylsulfamoyl)phenyl)-5-oxopyrrolidine-2-carboxamide] returned an IC50 below 100 nM.
The same measure for `N#Cc1cccc(N(C(=O)[C@@H]2CCC(=O)N2c2cc(C#N)ccn2)[C@H](C(=O)NC2CCC(F)(F)CC2)c2ccccc2Cl)c1` [Compound 166, (S)—N—((S)-1-(2-Chlorophenyl)-2-((4,4-difluorocyclohexyl)amino)-2-oxoethyl)-N-(3-cyanophenyl)-1-(4-cyanopyridin-2-yl)-5-oxopyrrolidine-2-carboxamide]: below 100 nM.
The same measure for `N#Cc1ccnc(N2C(=O)CC[C@H]2C(=O)N(c2ccc3[nH]ccc3c2)[C@H](C(=O)NC2CC(F)(F)C2)c2ccccc2Cl)c1` [Compound 206, (S)—N—((S)-1-(2-Chlorophenyl)-2-((3,3-difluorocyclobutyl)amino)-2-oxoethyl)-1-(4-cyanopyridin-2-yl)-N-(1H-indol-5-yl)-5-oxopyrrolidine-2-carboxamide]: below 100 nM; for `N#Cc1ccnc(N2C(=O)CC[C@H]2C(=O)N(c2cccc(OC(F)(F)F)c2)C(C(=O)NC2CC(F)(F)C2)c2ccccc2Cl)n1` (stereo partly drawn) [Compound 180, (2S)—N-(1-(2-Chlorophenyl)-2-((3,3-difluorocyclobutyl)amino)-2-oxoethyl)-1-(4-cyanopyrimidin-2-yl)-5-oxo-N-(3-(trifluoromethoxy)phenyl)pyrrolidine-2-carboxamide]: below 100 nM.
The same measure for `N#Cc1cc(F)cc(N(C(=O)[C@@H]2CCC(=O)N2c2cc(C#N)ccn2)[C@H](C(=O)NC2CC(F)(F)C2)c2ccccc2)c1` [Compound 211, (S)—N-(3-Cyano-5-fluorophenyl)-1-(4-cyanopyridin-2-yl)-N—((S)-2-(3,3-difluorocyclobutyl-amino)-2-oxo-1-phenylethyl)-5-oxopyrrolidine-2-carboxamide]: below 100 nM; for `N#Cc1ccnc(N2C(=O)OC[C@H]2C(=O)N(c2cncc(F)c2)[C@H](C(=O)NC2CCC(F)(F)CC2)c2ccccc2Cl)c1` [Compound 132, (S)—N—((S)-1-(2-Chlorophenyl)-2-((4,4-difluorocyclohexyl)amino)-2-oxoethyl)-3-(4-cyanopyridin-2-yl)-N-(5-fluoropyridin-3-yl)-2-oxooxazolidine-4-carboxamide]: below 100 nM.
`CC(C)(O)c1cc(F)cc(N(C(=O)[C@@H]2CCC(=O)N2c2cc(C#N)ccn2)[C@H](C(=O)NC2CC(F)(F)C2)c2ccccc2Cl)c1` [Compound 150, (S)—N—((S)-1-(2-Chlorophenyl)-2-(3,3-difluorocyclobutylamino)-2-oxoethyl)-1-(4-cyanopyridin-2-yl)-N-(3-fluoro-5-(2-hydroxypropan-2-yl)phenyl)-5-oxopyrrolidine-2-carboxamide] had a half-inhibitory concentration (IC50) below 100 nM.
Regarding `[2H]c1c([2H])c([2H])c([C@@H](C(=O)NC2CC(F)(F)C2)N(C(=O)[C@@H]2CCC(=O)N2c2cc(C#N)ccn2)c2cc(F)cc(F)c2)c(Cl)c1[2H]` [Compound 163], the concentration for half-maximal inhibition (IC50) is below 100 nM.
The figure for `COc1cccc(N(C(=O)[C@@H]2CCC(=O)N2c2nccc(C#N)n2)[C@H](C(=O)NC2CC(F)(F)C2)c2ccccc2Cl)c1` [Compound 164, (S)—N—((S)-1-(2-Chlorophenyl)-2-(3,3-difluorocyclobutyl-amino)-2-oxoethyl)-1-(4-cyanopyrimidin-2-yl)-N-(3-methoxyphenyl)-5-oxopyrrolidine-2-carboxamide] is below 100 nM; for `N#Cc1ccnc(N2C(=O)[C@@H](O)C[C@H]2C(=O)N(c2cccc(F)c2)[C@H](C(=O)NC2CCC(F)(F)CC2)c2ccccc2Cl)n1` [Compound 189, (2S,4S)—N—((S)-1-(2-Chlorophenyl)-2-((4,4-difluorocyclohexyl)amino)-2-oxoethyl)-1-(4-cyanopyrimidin-2-yl)-N-(3-fluorophenyl)-4-hydroxy-5-oxopyrrolidine-2-carboxamide] it is below 100 nM.
The same measure for `O=C(NC1CCC(F)(F)CC1)[C@H](c1ccccc1Cl)N(C(=O)[C@@H]1COC(=O)N1c1ncccn1)c1cccc(F)c1` [Compound 76, (S)—N—((S)-1-(2-Chlorophenyl)-2-((4,4-difluorocyclohexyl)amino)-2-oxoethyl)-N-(3-fluoro-phenyl)-2-oxo-3-(pyrimidin-2-yl)oxazolidine-4-carboxamide]: below 100 nM.
In turn, `N#Cc1ccnc(N2C(=O)CC[C@H]2C(=O)N(c2cccc3[nH]cnc23)C(C(=O)NC2CCC(F)(F)CC2)c2ccccc2Cl)c1` (stereo partly drawn) [Compound 141, (2S)—N-(1H-benzo[d]imidazol-7-yl)-N-(1-(2-chlorophenyl)-2-((4,4-difluorocyclohexyl)amino)-2-oxoethyl)-1-(4-cyanopyridin-2-yl)-5-oxopyrrolidine-2-carboxamide] had an IC50 below 100 nM.
`N#Cc1ccnc(N2C(=O)[C@H](O)C[C@H]2C(=O)N(c2cccc(F)c2)[C@H](C(=O)NC2CCC(F)(F)CC2)c2ccccc2Cl)c1` [Compound 121, (2S,4R)—N—((S)-1-(2-Chlorophenyl)-2-((4,4-difluorocyclohexyl)amino)-2-oxoethyl)-1-(4-cyanopyridin-2-yl)-N-(3-fluorophenyl)-4-hydroxy-5-oxopyrrolidine-2-carboxamide] returned an IC50 below 100 nM.
The figure for `N#Cc1ccnc(N2C(=O)CC[C@H]2C(=O)N(c2cccc(OC(F)F)c2)[C@H](C(=O)NC2CC(F)(F)C2)c2ccccc2Cl)c1` (single isomer, unassigned) [Compound 181] is below 100 nM; for `N#Cc1ccnc(N2C(=O)CC[C@H]2C(=O)N(c2cc(F)cc(F)c2)[C@H](C(=O)NC2CCC(F)(F)CC2)c2ccccc2Cl)c1` [Compound 81, (2S)—N-(1-(2-Chlorophenyl)-2-(4,4-difluorocyclohexylamino)-2-oxoethyl)-1-(4-cyanopyridin-2-yl)-N-(3,5-difluorophenyl)-5-oxopyrrolidine-2-carboxamide] it is below 100 nM.
The figure for `CNS(=O)(=O)c1cccc(N(C(=O)[C@@H]2CCC(=O)N2c2cc(C#N)ccn2)[C@H](C(=O)NC2CC(F)(F)C2)c2ccccc2Cl)c1` [Compound 157] is below 100 nM.
The figure for `C[C@]1(O)C[C@@H](C(=O)N(c2cccc(F)c2)C(C(=O)NC2CC(F)(F)C2)c2ccccc2Cl)N(c2cc(C#N)ccn2)C1=O` (single isomer, unassigned) [Compound 183] is below 100 nM; for `N#Cc1ccnc(N2C(=O)CC[C@H]2C(=O)N(c2cc(F)cc(C3CC3)c2)[C@H](C(=O)NC2CCC(F)(F)CC2)c2ccccc2Cl)c1` [Compound 202, (S)—N—((S)-1-(2-Chlorophenyl)-2-((4,4-difluorocyclohexyl)amino)-2-oxoethyl)-1-(4-cyanopyridin-2-yl)-N-(3-cyclopropyl-5-fluorophenyl)-5-oxopyrrolidine-2-carboxamide] it is below 100 nM.

Broadly, the IC50 is the concentration needed to halve the response being measured.
